The target in this assay is T1, full length active recombinant SYK enzyme (Homo sapiens, UniProt P43405).
T1 construct: full length active recombinant SYK enzyme (Millipore, Calif.); purchased Millipore
Kind of assay: Inhibition of Syk tyrosine phosphorylation activity (LANCE TR-FRET kinase assay). To be noted: 1 nM active SYK enzyme, 550 nM SYK-substrate, 100 μM ATP, 1 hour at room temperature. Format: biochemical. The procedure: The in vitro and in vivo human Syk activities of the inventive compounds can be determined by various procedures known in the art, such as a test for their ability to inhibit the activity of human plasma Syk.
Inhibition of Syk Tyrosine Phosphorylation Activity
SYK tyrosine phosphorylation activity is measured using the LANCE™ Technology developed by Perkin Elmer Life and Analytical Sciences (Boston, Mass.). LANCE™ refers to homogeneous time resolved fluorometry applications using techniques such as time-resolved fluorescence resonance energy transfer assay (TR-FRET) (see generally for procedures in Perkin Elmer Application Note—How to Optimize a Tyrosine Kinase Assay Using Time Resolved Fluorescence-Based LANCE Detection, wwww.perkinelmer.com/lifesciences). The assay principle involves detection of a phosphorylated substrate using energy transfer from a phosphospecific europium-labeled antibody to streptavidin-allophycocyanin as an acceptor.
Molecules are reconstituted in 30% DMSO and serially diluted 1:3 with the final dilution containing DMSO in the absence of the candidate molecule. The final DMSO concentration in the assay is 3%. Kinase assays are performed as a two part reaction. […] The second reaction involves termination of the kinase reaction and the simultaneous addition of the detection reagents-europium-labeled anti-phosphotyrosine reagent (Eu-W1024-PY100, Perkin Elmer, Boston, Mass.) and Streptavidin-Allophycocyanin detection reagent (SA-APC, Prozyme, CA). The kinase reaction is performed in a black U-bottom 96-well microtitre plate. […] The reaction is allowed to proceed for 1 hour at room temperature. The quench buffer contains 100 mM Tris pH 7.5, 300 mM […], 20 mM EDTA, 0.02% Brij35, and 0.5% BSA. The detection reagents are added to the reaction mixture at the following dilutions-1:500 for Eu-W1024-PY100 and 1:250 for SA-APC. The kinase reaction is terminated by the addition of 50 μL quench buffer containing the detection reagents. The detection is allowed to proceed for 1 hr at room temperature. Detection of the phosphorlated substrate in the absence and presence of inhibitors is measured in the TR-FRET instrument, Analyst HT (Molecular Probes, Sunnyvale, Calif.) and the condition for measurements are set up using CriterionHost Release 2.0 (Molecular Probes, Sunnyvale, Calif.). […] IC50s were derived by non-linear regression analysis.

pIC50: −log10 of the molar value.

Turning to `NC(=O)c1nnc(N[C@@H]2CCCC[C@@H]2N)nc1Nc1cccc(-c2ncccn2)c1` [Example 1, 3-((1R,2S)-2-aminocyclohexylamino)-5-(3-(pyrimidin-2-yl)phenylamino)-1,2,4-triazine-6-carboxamide], the pIC50 is 8.00 to 9.00.

Regarding `NC(=O)c1nnc(N[C@@H]2CCCC(F)(F)[C@@H]2N)nc1Nc1cccc(-c2ncccn2)c1` [Example 2, 3-(((1R,2R)-2-amino-3,3-difluorocyclohexyl)amino)-5-((3-(pyrimidin-2-yl)phenyl)amino)-1,2,4-triazine-6-carboxamide], the negative logarithm of the IC50 (pIC50) is 6.00 to 7.00.

Take `NC(=O)c1nnc(N[C@@H]2CCCC[C@@H]2N)nc1Nc1ccc(-c2ncccn2)cc1` [Example 3, 3-(((1R,2S)-2-aminocyclohexyl)amino)-5-((4-(pyrimidin-2-yl)phenyl)amino)-1,2,4-triazine-6-carboxamide]: the pIC50 is 8.00 to 9.00.

Take `NC(=O)c1nnc(N[C@@H]2CCCC[C@@H]2N)nc1Nc1cccc(-n2cncn2)c1` [Example 5, 5-((3-(1H-1,2,4-triazol-1-yl)phenyl)amino)-3-(((1R,2S)-2-aminocyclohexyl)amino)-1,2,4-triazine-6-carboxamide]: the pIC50 is 8.00 to 9.00.

Take `NC(=O)c1nnc(N[C@@H]2CCCC[C@@H]2N)nc1Nc1cccc(-n2cccn2)c1` [Example 6, 5-(3-(1H-pyrazol-1-yl)phenylamino)-3-((1R,2S)-2-aminocyclohexylamino)-1,2,4-triazine-6-carboxamide]: the negative logarithm of the IC50 (pIC50) is 8.00 to 9.00.

Consider `NC(=O)c1nnc(N[C@@H]2CCCC[C@@H]2N)nc1Nc1cccc(-c2ncco2)c1` [Example 7, 3-(((1R,2S)-2-aminocyclohexyl)amino)-5-((3-(oxazol-2-yl)phenyl)amino)-1,2,4-triazine-6-carboxamide], for which the pIC50 is 8.00 to 9.00.

For `Cc1ccc(Nc2nc(N[C@@H]3CCCC[C@@H]3N)nnc2C(N)=O)cc1` [Example 8, 3-(((1R,2S)-2-aminocyclohexyl)amino)-5-(p-tolylamino)-1,2,4-triazine-6-carboxamide], the pIC50 was 8.00 to 9.00.

For the compound `Cc1ccc(Nc2nc(N[C@@H]3CCOC[C@@H]3N)nnc2C(N)=O)cc1` [Example 9, 3-(((3R,4R)-3-aminotetrahydro-2H-pyran-4-yl)amino)-5-(p-tolylamino)-1,2,4-triazine-6-carboxamide], the pIC50 is 7.00 to 8.00.

As for `CC[C@@H](Nc1nnc(C(N)=O)c(Nc2ccc(C)cc2)n1)C(N)=O` [Example 10, (R)-3-((1-amino-1-oxobutan-2-yl)amino)-5-(p-tolylamino)-1,2,4-triazine-6-carboxamide], the negative logarithm of the IC50 (pIC50) is 7.00 to 8.00.

For `Cc1cccc(Nc2nc(N[C@@H]3CCCC[C@@H]3N)nnc2C(N)=O)c1` [Example 11, 3-(((1R,2S)-2-aminocyclohexyl)amino)-5-(m-tolylamino)-1,2,4-triazine-6-carboxamide], the pIC50 was greater than 9.00.

As to `Cc1cccc(Nc2nc(N[C@@H]3CCCC(F)(F)[C@@H]3N)nnc2C(N)=O)c1` [Example 12, 3-(((1R,2R)-2-amino-3,3-difluorocyclohexyl)amino)-5-(m-tolylamino)-1,2,4-triazine-6-carboxamide], the pIC50 was 7.00 to 8.00.

Turning to `CC[C@@H](Nc1nnc(C(N)=O)c(Nc2cccc(C)c2)n1)C(N)=O` [Example 13, (R)-3-((1-amino-1-oxobutan-2-yl)amino)-5-(m-tolylamino)-1,2,4-triazine-6-carboxamide], the pIC50 was 7.00 to 8.00.

Regarding `NC(=O)c1nnc(N[C@@H]2CCCC[C@@H]2N)nc1Nc1cncc(F)c1` [Example 14, 3-(((1R,2S)-2-aminocyclohexyl)amino)-5-((5-fluoropyridin-3-yl)amino)-1,2,4-triazine-6-carboxamide], the negative-log IC50 (pIC50) was 6.00 to 7.00.

Regarding `CC[C@@H](Nc1nnc(C(N)=O)c(Nc2cncc(F)c2)n1)C(N)=O` [Example 15, (R)-3-((1-amino-1-oxobutan-2-yl)amino)-5-((5-fluoropyridin-3-yl)amino)-1,2,4-triazine-6-carboxamide], the pIC50 was 6.00 to 7.00.

With `CC(C)C[C@@H](Nc1nnc(C(N)=O)c(Nc2cncc(F)c2)n1)C(N)=O` [Example 16, (R)-3-((1-amino-4-methyl-1-oxopentan-2-yl)amino)-5-((5-fluoropyridin-3-yl)amino)-1,2,4-triazine-6-carboxamide], the pIC50 was 6.00 to 7.00.

Consider `NC(=O)c1nnc(N[C@@H]2CCCC[C@@H]2N)nc1Nc1cccc(F)c1` [Example 17, 3-(((1R,2S)-2-aminocyclohexyl)amino)-5-((3-fluorophenyl)amino)-1,2,4-triazine-6-carboxamide], for which the negative-log IC50 (pIC50) was 8.00 to 9.00.

For `NC(=O)c1nnc(N[C@@H]2CCCC[C@@H]2N)nc1Nc1ccc(F)c(F)c1` [Example 18, 3-(((1R,2S)-2-aminocyclohexyl)amino)-5-((3,4-difluorophenyl)amino)-1,2,4-triazine-6-carboxamide], the pIC50 was 7.00 to 8.00.

In the case of `Cc1ccc(Nc2nc(N[C@@H]3CCCC[C@@H]3N)nnc2C(N)=O)cc1F` [Example 19, 3-(((1R,2S)-2-aminocyclohexyl)amino)-5-((3-fluoro-4-methylphenyl)amino)-1,2,4-triazine-6-carboxamide], the pIC50 was 8.00 to 9.00.

In the case of `NC(=O)c1nnc(N[C@@H]2CCCC[C@@H]2N)nc1Nc1cc(F)cc(F)c1` [Example 20, 3-(((1R,2S)-2-aminocyclohexyl)amino)-5-((3,5-difluorophenyl)amino)-1,2,4-triazine-6-carboxamide], the pIC50 is 8.00 to 9.00.

With `NC(=O)c1nnc(N[C@@H]2CCCC[C@@H]2N)nc1Nc1cc(F)cc(Cl)c1` [Example 21, 3-(((1R,2S)-2-aminocyclohexyl)amino)-5-((3-chloro-5-fluorophenyl)amino)-1,2,4-triazine-6-carboxamide], the pIC50 was 8.00 to 9.00.

As for `Cc1cc(F)cc(Nc2nc(N[C@@H]3CCCC[C@@H]3N)nnc2C(N)=O)c1` [Example 22, 3-(((1R,2S)-2-aminocyclohexyl)amino)-5-((3-fluoro-5-methylphenyl)amino)-1,2,4-triazine-6-carboxamide], the pIC50 is 8.00 to 9.00.

With `NC(=O)c1nnc(N[C@@H]2CCCC[C@@H]2N)nc1Nc1cccc(Cl)c1` [Example 23, 3-(((1R,2S)-2-aminocyclohexyl)amino)-5-((3-chlorophenyl)amino)-1,2,4-triazine-6-carboxamide], the negative-log IC50 (pIC50) was 8.00 to 9.00.

For `NC(=O)c1nnc(N[C@@H]2CCCC[C@@H]2N)nc1Nc1ccc(F)c(Cl)c1` [Example 24, 3-(((1R,2S)-2-aminocyclohexyl)amino)-5-((3-chloro-4-fluorophenyl)amino)-1,2,4-triazine-6-carboxamide], the negative logarithm of the IC50 (pIC50) was 8.00 to 9.00.

`NC(=O)c1nnc(N[C@@H]2CCCC[C@@H]2N)nc1Nc1ccc(F)cc1` [Example 25, 3-(((1R,2S)-2-aminocyclohexyl)amino)-5-((4-fluorophenyl)amino)-1,2,4-triazine-6-carboxamide]: the pIC50 is 7.00 to 8.00.

As for `Cc1cc(Nc2nc(N[C@@H]3CCCC[C@@H]3N)nnc2C(N)=O)ccc1F` [Example 26, 3-(((1R,2S)-2-aminocyclohexyl)amino)-5-((4-fluoro-3-methylphenyl)amino)-1,2,4-triazine-6-carboxamide], the pIC50 was 8.00 to 9.00.

The values are drawn from US9040530B2, “1,2,4-triazine-6-carboxamide kinase inhibitors” (Portola Pharmaceuticals, Inc., priority 2012, dated 2015).
